# Entries after “also recorded” stand apart in the source; their conditions may differ. Where two headings read alike, the source gives them in different places.
# Key:
# [1] = system: c-fos SRE activation in CHO cells stably expressing D2R; assay: SRE-luciferase reporter assay, quinpirole-stimulated c-fos SRE activation in CHO-D2R cells; format: cell-based, Chinese hamster
# Erk1/2 phosphorylation = assay: Western blot of phospho-Erk1/2 in CHO-D2R cells; format: cell-based, Chinese hamster; details: 25 nM PD098059, 30 minutes before 100 nM quinpirole, 5 min
# Experimental: Cell lysates were prepared by incubating cells for 5 minutes on ice with a lysis buffer containing […] NaCl, 50 mM Tris, pH 7.5, 5 mM EDTA, 1% Triton, and a mixture of protease inhibitors. Cells were then scraped off plates and sonicated. The detergent-insoluble material was removed by microcentrifugation for 10 minutes at 4° C. An equal amount of protein was run on SDS gels (Novex, Carlsbad, Calif.) and transferred to nitrocellulose (Bio-Rad, Hercules, Calif.). […] The membrane was washed, incubated for 1 hour in TBS containing appropriate HRP-conjugated secondary antibodies, washed again, and developed with the ECL reagent (Amersham Pharmacia Biotech, Piscataway, N.J.).
# [2] = transfection of dominant-negative Rho family mutant or C3 (3 μg), 100 nM quinpirole
compound,measurement,setting,value
"COc1cccc(-c2cc(=O)c3ccccc3o2)c1N [PD098059, reference compound]",effect on quinpirole-stimulated SRE activation,"[1]; 25 nM PD098059, 100 nM quinpirole",only partially suppressed; also recorded: inhibited
same,diminution of quinpirole-stimulated SRE activity,"[1]; 25 nM PD098059, 100 nM quinpirole, compared to vehicle",about 50%
same,effect on quinpirole-stimulated Erk1/2 phosphorylation,Erk1/2 phosphorylation,completely suppressed; also recorded: inhibited
"COC[C@H]1OC(=O)c2coc3c2[C@@]1(C)C1=C(C3=O)[C@@H]2CCC(=O)[C@@]2(C)C[C@H]1OC(C)=O [wortmannin, reference compound]",effect on quinpirole-stimulated SRE activation,"[1]; 50 nM wortmannin, 100 nM quinpirole",no effect
"CdcN17: dominant-negative mutant of Cdc42, Thr17 substituted with Asn",effect on quinpirole-stimulated SRE activation,[1]; [2],suppressed
"RhoN19: dominant-negative mutant of RhoA, Thr19 substituted with Asn",effect on quinpirole-stimulated SRE activation,[1]; [2],suppressed
pertussis toxin [reference compound],effect on quinpirole-stimulated SRE activation,[1],completely abolished; also recorded: abrogated

# — patent US20030119716A1, “Methods for screening, treating and diagnosing G-protein coupled receptor-related disorders and compositions thereof” (Wyeth, priority 2001, published 2003)
